Laboratory results reported in patent US20260317324A1, “BIFUNCTIONAL COMPOUNDS FOR DEGRADING BRAF VIA UBIQUITIN PROTEOSOME PATHWAY” (Nurix Therapeutics, Inc., priority 2023, published 2026).

Tests used:
Assay type in all cases: cell-based
BRAF G469A = target: T1, BRAF G469A (Homo sapiens, UniProt P15056, G469A); assay: BRAF HiBiT degradation assay, C-terminal HiBiT-tagged BRAF G469A overexpressed in HCT-116 BRAF−/− cells (clone 34), Nano-Glo HiBiT Lytic assay
T1 construct: Horizon Discovery (HCT-116 BRAF−/− cells); host or cells: HCT-116 BRAF−/− cells, clone 34, lentiviral transduction
T1 sequence (P15056 whole entry G469A): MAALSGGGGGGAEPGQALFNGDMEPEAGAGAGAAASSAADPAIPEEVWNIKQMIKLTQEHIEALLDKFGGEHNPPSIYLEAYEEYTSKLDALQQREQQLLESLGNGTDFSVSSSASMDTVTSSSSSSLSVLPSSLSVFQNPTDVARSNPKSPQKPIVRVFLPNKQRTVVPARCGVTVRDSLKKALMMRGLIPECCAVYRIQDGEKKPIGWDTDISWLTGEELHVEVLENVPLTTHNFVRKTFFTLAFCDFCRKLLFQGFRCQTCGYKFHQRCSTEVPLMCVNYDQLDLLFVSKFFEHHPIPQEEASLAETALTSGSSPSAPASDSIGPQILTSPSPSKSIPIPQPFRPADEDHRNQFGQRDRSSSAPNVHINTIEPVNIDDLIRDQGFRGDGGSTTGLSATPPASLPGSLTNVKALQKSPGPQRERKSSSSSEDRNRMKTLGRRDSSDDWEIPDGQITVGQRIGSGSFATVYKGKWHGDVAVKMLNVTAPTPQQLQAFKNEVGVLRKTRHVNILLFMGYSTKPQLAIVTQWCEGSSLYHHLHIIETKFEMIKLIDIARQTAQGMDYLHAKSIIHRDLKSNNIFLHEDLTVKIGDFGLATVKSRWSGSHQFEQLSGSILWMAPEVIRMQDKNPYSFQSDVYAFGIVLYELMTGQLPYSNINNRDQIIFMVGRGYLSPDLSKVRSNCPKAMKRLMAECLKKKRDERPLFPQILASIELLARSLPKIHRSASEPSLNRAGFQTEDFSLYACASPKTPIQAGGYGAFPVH
Excerpt: (§1) An A375 cell line expressing a homozygous V600E mutation was purchased from ATCC (Manassas, VA, USA). An A375 clone 1F10 cell line with an endogenous C-terminal HiBiT fusion tag on BRAF V600E allele was generated internally using CRISPR-Cas9 technology and cultured in DMEM, high glucose supplemented with 10% FBS and 1× GlutaMAX. A HCT-116 BRAF−/− cell line overexpressing the C-terminal HiBiT-tagged G466V, G469A, and D594G mutants were generated by lentiviral transduction, externally at Biosettia Inc (San Diego, CA, USA). The stably transfected cells were cultured in RPMI media supplemented with 10% FBS, 1× GlutaMAX, and 0.25 μg/ml puromycin. DMEM medium, RPMI 1640 medium, GlutaMAX, fetal bovine serum (FBS), and puromycin were purchased from Gibco (Grand Island, NY, USA). HCT-116 BRAF−/− cells were purchased from Horizon Discovery (Waterbeach, UK).
(§2) The C-terminal HiBiT tagged mutant BRAF G466V, G469A, and D594G overexpressed in HCT-116 BRAF−/− cells (monoclonal cell line, cell clones 8, 34, and 63, respectively) were seeded at the density of 3,000 cells/well in 30 μL media (RPMI supplemented with 10% FBS and 1× GlutaMAX) in white opaque 384-well plates (Corning #3570) from column 1 to column 23. Wildtype HCT-116 BRAF cells were seeded in column 24 at the same cell density in 30 μL media. Cells were incubated at 37° C. with 5% CO2 for 24 h.
(§3) Intermediate compound dilution series (5-point, ranging from 5 mM to 0.5 μM, 10-fold dilutions in DMSO) were prepared in a source plate (Beckman Coulter cat. no. 001-16128). Final compound dilution series (11-point, ranging from 1 μM to 0.01 nM, half-log dilutions in DMSO) were stamped into the assay plate (Corning #3570, column 1-11 and 12-22) using the Echo Acoustic Liquid Handler (Beckman Coulter). Each compound was plated in duplicate, and the total volume of compound DMSO solution was 60 nL/well (0.2% final DMSO concentration). DMSO was included in wells A23-L23 and A24-L24. The DMSO-treated HiBiT-tagged samples served as Negative Control (NC) and the DMSO-treated wildtype samples served as Background Control (BC) for the HiBiT assay.
(§4) HiBiT signal was measured by a Nano-Glo HiBiT Lytic assay (Promega cat. no. N3050). HiBiT lytic detection reagent (Nano-Glo HiBiT Lytic Buffer with 1:50 Nano-Glo HiBiT Lytic Substrate and 1:100 LgBiT Protein, 40 μL) was added using Bravo. The mixture was incubated at room temperature, in the dark, and with gentle shaking for 10 min. Luminesce units (LU) were read on an EnVision plate reader 2105 (Perkin Elmer).
(§5) Percent protein remaining and viability remaining per sample were calculated as follows: […]
(§6) % Protein remaining values were plotted as a function of compound concentration. XC50 (DC50) values were determined by fitting curves using the following equation:
(§7) For the HiBiT degradation assay, the key parameters reported include: • The dose of compound that produces 50% degradation (DC50 at 50%): • DC50 at 50%: the Fitted X value (Conc.) at Y=50 (response) • Observed Dmax (Obs. Dmax) is the percentage protein degraded at maximal compound effect relative to DMSO-treated control: […]

BRAF D594G = target: T2, BRAF D594G (Homo sapiens, UniProt P15056, D594G); assay: BRAF HiBiT degradation assay, C-terminal HiBiT-tagged BRAF D594G overexpressed in HCT-116 BRAF−/− cells (clone 63), Nano-Glo HiBiT Lytic assay
T2 construct: Horizon Discovery (HCT-116 BRAF−/− cells); host or cells: HCT-116 BRAF−/− cells, clone 63, lentiviral transduction
T2 sequence (P15056 whole entry D594G): as the sequence (P15056 whole entry G469A) above, with A469G, D594G counted along it
Excerpt: as §1, §2, §3, §4, §5, §6, §7

BRAF V600E = target: T3, BRAF V600E (Homo sapiens, UniProt P15056, V600E); assay: BRAF HiBiT degradation assay, C-terminal HiBiT-tagged BRAF V600E A375 cells (clone 1F10), Nano-Glo HiBiT Lytic assay; conditions: for Dmax: A-375
T3 construct: endogenous C-terminal HiBiT fusion tag on BRAF V600E allele; endogenous in cells; host or cells: A375 clone 1F10 (CRISPR-Cas9 knock-in of the HiBiT tag; parental A375 from ATCC)
T3 sequence (P15056 whole entry V600E, the tested form may be a part): as the sequence (P15056 whole entry G469A) above, with A469G, V600E counted along it
How it was run: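 Endogenous BRAF V600E-HiBiT A375 (1F10), 10,000 cells/well, 24 h preculture; cpd 11-pt, 1 μM–0.01 nM half-log, n=2, 0.2% DMSO; HiBiT lytic detection 10 min RT; DC50 = fitted conc at Y=50; Obs. Dmax vs DMSO.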

BRAF G466V = target: T4, BRAF G466V (Homo sapiens, UniProt P15056, G466V); assay: BRAF HiBiT degradation assay, C-terminal HiBiT-tagged BRAF G466V overexpressed in HCT-116 BRAF−/− cells (clone 8), Nano-Glo HiBiT Lytic assay
T4 construct: Horizon Discovery (HCT-116 BRAF−/− cells); host or cells: HCT-116 BRAF−/− cells, clone 8, lentiviral transduction
T4 sequence (P15056 whole entry G466V): as the sequence (P15056 whole entry G469A) above, with G466V, A469G counted along it
Excerpt: as §1, §2, §3, §4, §5, §6, §7

[1] = BRAF G469A (Class 2), HCT-116 BRAF−/− cells, DC50 at 50% degradation
[2] = BRAF G469A (Class 2), HCT-116 BRAF−/− cells, observed Dmax relative to DMSO control
[3] = BRAF D594G (Class 3), HCT-116 BRAF−/− cells, DC50 at 50% degradation
[4] = BRAF D594G (Class 3), HCT-116 BRAF−/− cells, observed Dmax relative to DMSO control
[5] = A375 (BRAF V600E, Class 1), DC50 at 50% degradation
[6] = A375 (BRAF V600E, Class 1), observed Dmax, % protein degraded relative to DMSO control
[7] = BRAF G466V (Class 3), HCT-116 BRAF−/− cells, DC50 at 50% degradation
[8] = BRAF G466V (Class 3), HCT-116 BRAF−/− cells, observed Dmax relative to DMSO control

Compound	DC50 (BRAF G469A; [1])	Dmax (BRAF G469A; [2])	DC50 (BRAF D594G; [3])	Dmax (BRAF D594G; [4])	DC50 (BRAF V600E; [5])	Dmax (BRAF V600E; [6])	DC50 (BRAF G466V; [7])	Dmax (BRAF G466V; [8])	DC50 (BRAF G469A; Class 2, BRAF G469A, DC50 at 50%: fitted conc. at Y=50)	Dmax (BRAF G469A; HCT-116, Class 2, BRAF G469A, percentage protein degraded at maximal compound effect relative to DMSO)	DC50 (BRAF D594G; BRAF D594G, DC50 at 50%: fitted conc. at Y=50)	Dmax (BRAF D594G; HCT-116, BRAF D594G, percentage protein degraded at maximal compound effect relative to DMSO)	DC50 (BRAF V600E; A375 (BRAF V600E), DC50 at 50%: fitted conc. at Y=50)	Dmax (BRAF V600E; A375 (BRAF V600E), percentage protein degraded at maximal compound effect relative to DMSO)	DC50 (BRAF G466V; BRAF G466V, DC50 at 50%: fitted conc. at Y=50)	Dmax (BRAF G466V; HCT-116, BRAF G466V, percentage protein degraded at maximal compound effect relative to DMSO)
O=C1CCN(c2ccc(N3CCC(CN4CCN(c5ccc(-n6cc(-c7cc(Cl)cc(NS(=O)(=O)N8CC[C@@H](F)C8)c7F)c(-c7ccncc7)n6)cc5)CC4)CC3)cc2)C(=O)N1 [Compound 292, (3R)—N-[5-chloro-3-(1-{4-[4-({1-[4-(2,4-dioxo-1,3-diazinan-1-yl)phenyl]piperidin-4-yl}methyl)piperazin-1-yl]phenyl}-3-(pyridin-4-yl)-1H-pyrazol-4-yl)-2-fluorophenyl]-3-fluoropyrrolidine-1-sulfonamide]	50 to 500 nM	30 to 70%	< 10 nM	30 to 70%	< 10 nM	> 70%	< 10 nM	30 to 70%								
CCCS(=O)(=O)Nc1cccc(-c2nc(C3CCN(C(=O)C4CCN(C(=O)C5CCN(c6ccc(C7CCC(=O)NC7=O)cn6)CC5)CC4)CC3)sc2-c2ccncn2)c1F (racemic) [Compound 220, Rac-N-[3-(2-{1-[1-(1-{5-[(3R)-2,6-dioxopiperidin-3-yl]pyridin-2-yl}piperidine-4-carbonyl)piperidine-4-carbonyl]piperidin-4-yl}-5-(pyrimidin-4-yl)-1,3-thiazol-4-yl)-2-fluorophenyl]propane-1-sulfonamide]									> 500 nM	30 to 70%	< 10 nM	30 to 70%	< 10 nM	> 70%	10 to 50 nM	30 to 70%
C[C@@H]1CN(c2ccc(-n3cc(-c4cc(Cl)cc(NS(=O)(=O)N5CC[C@@H](F)C5)c4F)c(-c4ccncc4)n3)nc2)CCN1CC1CCN(c2ccc(C3CCC(=O)NC3=O)cn2)CC1 (mixture of isomers) [Compound 321, (3R)—N-[5-chloro-3-(1-{5-[(3R)-4-[(1-{5-[(3RS)-2,6-dioxopiperidin-3-yl]pyridin-2-yl}piperidin-4-yl)methyl]-3-methylpiperazin-1-yl]pyridin-2-yl}-3-(pyridin-4-yl)-1H-pyrazol-4-yl)-2-fluorophenyl]-3-fluoropyrrolidine-1-sulfonamide]	< 10 nM	> 70%	< 10 nM	> 70%	< 10 nM	> 70%	< 10 nM	> 70%								
CCN(C)S(=O)(=O)Nc1cc(Cl)cc(-c2cn(-c3ccc(N4CCN(CC5CCN(c6ccc([C@H]7CCC(=O)NC7=O)cn6)CC5)CC4)cn3)nc2-c2ccncc2)c1F [Compound 314, (3R)-3-(6-{4-[(4-{6-[4-(5-chloro-3-{[ethyl(methyl)sulfamoyl]amino}-2-fluorophenyl)-3-(pyridin-4-yl)-1H-pyrazol-1-yl]pyridin-3-yl}piperazin-1-yl)methyl]piperidin-1-yl}pyridin-3-yl)piperidine-2,6-dione]	10 to 50 nM	30 to 70%	< 10 nM	> 70%	< 10 nM	> 70%	10 to 50 nM	> 70%								
